Where two headings read alike, the source gives them in different places.
Experiments:
c-Src = c-Src (Homo sapiens (Human), UniProt P12931); test: c-Src enzyme inhibition (FRET, Z-LYTE); assay type: biochemical
Method: The enzyme inhibitory activities of compounds disclosed herein are determined by FRET using synthetic peptides labelled with both donor and acceptor fluorophores (Z-LYTE, Invitrogen Ltd., Paisley, UK).
The relevant enzyme (3000 ng/mL or 2000 ng/mL respectively, 2.5 μL) is incubated with the test compound (either 4 μg/mL, 0.4 μg/mL, 0.04 μg/mL, or 0.004 μg/mL, 2.5 μL each) for 2 hr at RT. The FRET peptides (8 μM, 2.5 μL), and appropriate ATP solutions (2.5 μL, 800 μM for c-Src, and 60 μM ATP for Syk) are then added to the enzymes/compound mixtures and incubated for 1 hr. Development reagent (protease, 5 μL) is added for 1 hr prior to detection in a fluorescence microplate reader (Varioskan® Flash, ThermoFisher Scientific).
In all cases, the site-specific protease cleaves non-phosphorylated peptide only and eliminates the FRET signal. Phosphorylation levels of each reaction are calculated using the ratio of coumarin emission (donor) over fluorescein emission (acceptor), for which high ratios indicate high phosphorylation and low ratios indicate low phosphorylation levels.

d-U937 cells = test: LPS-induced TNFα/IL-8 release in d-U937 cells, assay (a); assay type: cell-based; conditions: Homo sapiens, LPS-stimulated dU937 cells
Method: U937 cells, a human monocytic cell line, are differentiated to macrophage-type cells by incubation with phorbol myristate acetate (PMA; 100 ng/mL) for 48 to 72 hr. Cells are pre-incubated with final concentrations of test compound for 2 hr and are then stimulated with 0.1 μg/mL of LPS (from E. Coli: O111:B4, Sigma) for 4 hr. The supernatant is collected for determination of TNFα and IL-8 concentrations by sandwich ELISA (Duo-set, R&D systems). The inhibition of TNFα production is calculated as a percentage of that achieved by 10 μg/mL of BIRB796 at each concentration of test compound by comparison against vehicle control. The relative 50% effective concentration (REC50) is determined from the resultant concentration-response curve. The inhibition of IL-8 production is calculated at each concentration of test compound by comparison with vehicle control.

p38 MAPKα = p38 MAPKα (Homo sapiens (Human), UniProt Q16539); test: p38 MAPKα enzyme inhibition (FRET, Z-LYTE), Method 2; assay type: biochemical
Chain of p38 MAPKα (Q16539 whole entry): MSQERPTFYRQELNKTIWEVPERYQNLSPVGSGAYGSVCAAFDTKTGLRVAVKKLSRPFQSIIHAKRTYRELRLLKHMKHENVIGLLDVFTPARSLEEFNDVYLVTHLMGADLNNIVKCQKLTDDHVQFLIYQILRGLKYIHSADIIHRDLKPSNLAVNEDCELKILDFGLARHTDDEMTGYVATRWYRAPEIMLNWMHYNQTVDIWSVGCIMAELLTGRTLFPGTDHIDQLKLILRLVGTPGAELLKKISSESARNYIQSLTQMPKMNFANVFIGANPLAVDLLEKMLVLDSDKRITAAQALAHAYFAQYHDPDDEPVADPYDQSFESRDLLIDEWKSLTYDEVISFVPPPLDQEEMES

HT29 cells = test: IL-1β-induced IL-8 release in HT29 cells, assay (d); assay type: cell-based; conditions: Homo sapiens, HT-29, IL-1β-stimulated HT29 cells, read-out: IC50 Values for Inhibition of Cytokine Release, HT29 cells IL-8
Method: HT29 cells, a human colon adenocarcinoma cell line, are plated in a 96 well plate (24 hrs) and pre-treated with compounds at the desired concentration for 2 hours before addition of 5 ng/mL of IL-1β (Abcam) for 24 hours. Supernatants are harvested for IL-8 quantification by Sandwich ELISA (Duo-set, R&D System). The IC50 is determined from the dose response curve.

[1] = tested on: TNBS-induced colitis in mice; test: TNBS-induced colitis in mice, in vivo assay (iv), conducted over 2 days; conditions: for Ulcer grade: TNBS + Vehicle 4.3 ± 0.2; for LP inflammation: TNBS + Vehicle 4.7 ± 0.1
Method: Non-fasted, 10-12 week old, male BDF1 mice are dosed by oral gavage twice daily with either vehicle (5 mL/kg), reference item (Budesonide 2.5 mg/kg) or test compound (1 or 5 mg/kg) one day before (Day −1) stimulation of the inflammatory response by treatment with 2,4,6-trinitrobenzenesulphonic acid (TNBS) (15 mg/mL in 50% ethanol/50% saline). On Day 0 of the study TNBS (200 μL) is administered intra-colonically via a plastic catheter with BID dosing of the vehicle, reference or test compound continuing for 2 or 4 days. During the study animals are weighed every day and stool observations are made and recorded as a score, based on stool consistency. At the time of sacrifice on Day 2 (or Day 4) the large intestine is removed and the length and weight recorded. Sections of the colon are taken for histopathology scoring to determine disease severity.

[2] = tested on: intestinal mucosa biopsies from UC patients; test: Human biopsy assay (l): cytokine release from intestinal mucosa biopsies of ulcerative colitis patients; assay type: cell-based; conditions: 1 μg/mL, 24 hours
Method: Intestinal mucosa biopsies are obtained from the inflamed regions of the colon of IBD patients. The biopsy material is cut into small pieces (2-3 mm) and placed on steel grids in an organ culture chamber at 37° C. in a 5% CO2/95% O2 atmosphere in serum-free media. DMSO control or test compounds at the desired concentration are added to the tissue and incubated for 24 hr in the organ culture chamber. The supernatant is harvested for determination of IL-6, IL-8, IL-1β and TNFα levels by R&D ELISA. Percentage inhibition of cytokine release by the test compounds is calculated relative to the cytokine release determined for the DMSO control (100%).

[3] = IL-8, read-out: IC50 Values for Inhibition of Cytokine Release, dU937 cells IL-8
[4] = TNFα (method describes REC50 relative to BIRB796), read-out: IC50 Values for Inhibition of Cytokine Release, dU937 cells TNFα
[5] = UC patient biopsies, DMSO control = 100%

Chain of c-Src (P12931 whole entry, looked up): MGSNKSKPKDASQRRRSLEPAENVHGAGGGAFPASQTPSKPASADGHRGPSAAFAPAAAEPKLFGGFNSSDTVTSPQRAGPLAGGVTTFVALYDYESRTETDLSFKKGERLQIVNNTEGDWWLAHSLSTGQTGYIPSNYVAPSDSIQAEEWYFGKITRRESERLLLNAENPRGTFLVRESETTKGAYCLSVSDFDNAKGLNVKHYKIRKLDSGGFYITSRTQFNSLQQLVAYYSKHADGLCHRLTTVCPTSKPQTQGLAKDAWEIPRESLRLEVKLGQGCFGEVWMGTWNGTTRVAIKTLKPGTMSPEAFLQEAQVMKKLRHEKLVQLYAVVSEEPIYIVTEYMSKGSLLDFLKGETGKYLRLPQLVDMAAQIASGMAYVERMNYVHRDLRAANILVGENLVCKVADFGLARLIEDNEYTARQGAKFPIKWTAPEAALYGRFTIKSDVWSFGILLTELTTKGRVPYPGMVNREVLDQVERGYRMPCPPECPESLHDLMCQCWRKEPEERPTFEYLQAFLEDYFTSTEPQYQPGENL

| IC50 (c-Src) | IC50 (d-U937 cells; [3]) | IC50 (d-U937 cells; [4]) | IC50 (p38 MAPKα) | IC50 (HT29 cells) | Structure (SMILES) | Ulcer grade ([1]; 1 mg/kg oral BID, mice, 2 days) | LP inflammation ([1]; 1 mg/kg oral BID, mice, 2 days) | Ulcer grade ([1]; 5 mg/kg oral BID, mice, 2 days) | LP inflammation ([1]; 5 mg/kg oral BID, mice, 2 days) | inflammatory cell infiltrate in the reticular and laminar propria zone ([1]; TNBS colitis, mice) | activity in in vivo model of colonic inflammation (histopathology analysis) ([1]; TNBS colitis, mice, 2 days) | ulcer grade and epithelial repair compared to the vehicle control ([1]; dosed orally at either 1 or 5 mg/kg) | IL-1β release [2, 5] | IL-6 release [2, 5] | IL-8 release [2, 5] | cytokine (IL-1β, IL-6 and IL-8) release compared to the DMSO control ([2]; biopsies from ulcerative colitis patients) |
| --- | --- | --- | --- | --- | --- | --- | --- | --- | --- | --- | --- | --- | --- | --- | --- | --- |
| 5 nM | 1 nM | 2 nM | 10 nM | 16.6 nM | COCCOCCOCCOc1cc(Nc2nccc(Oc3ccc(NC(=O)Nc4cc(C(C)(C)C)nn4C)c4ccccc34)n2)cc(OC)c1 [Example 2, 1-(3-(tert-Butyl)-1-methyl-1H-pyrazol-5-yl)-3-(4-((2-((3-methoxy-5-(2-(2-(2-methoxy-ethoxy)ethoxy)ethoxy)phenyl)amino)pyrimidin-4-yl)oxy)naphthalen-1-yl)urea] | – | – | – | – | – | – | – | – | – | – | – |
| – | 6.7 nM | 2.4 nM | – | 33.4 nM | C#Cc1cc(Nc2nccc(Oc3ccc(NC(=O)Nc4cc(C(C)(C)C)nn4C)c4ccccc34)n2)cc(C(=O)NCCN2CCOCC2)c1 [Example 1, 3-((4-((4-(3-(3-(tert-Butyl)-1-methyl-1H-pyrazol-5-yl)ureido)naphthalen-1-yl)oxy)pyrimidin-2-yl)amino)-5-ethynyl-N-(2-morpholinoethyl)benzamide] | 3.3 ± 0.5 | 4.2 ± 0.2 | 3.2 ± 0.5 | 2.4 ± 0.3 | marked reduction | significant activity | marked improvements | 3 ± 2% | 8 ± 8% | 2 ± 2% | significantly inhibited |

Reference: US9771353B2, “Kinase inhibitors based upon N-alkyl pyrazoles” (RESPIVERT LIMITED, priority 2013, dated 2017)
